How the values were obtained:
Test in all cases: competitive native PAGE, 2a staining
Conditions in all cases: 100 mM KCl; TBE; 100 μM competitor with 20 μM c-MYC Pu22; 5 μM 2a
[1] = tested on: TBA (DNA, G4) GGTTGGTGTGGTTGG
[2] = tested on: GC-rich ds-DNA (DNA, duplex) TGAGGGTGGGTAGGGTGGGTAA/TTACCCACCCTACCCACCCTCA
[3] = tested on: s.c. ds-DNA (DNA, duplex) CAATCGGATCGAATTCGATCCGATTG

Measured: binding

CCN(CC)c1ccc2cc(C(=N)N)c(=O)oc2c1
no: [1] | [2] | [3]

From paper PMC8397291 (2021)
